The source of these data is patent publication US20240335462A1, “SULFUR/PHOSPHORUS-CONTAINING ARYL COMPOUND AND APPLICATION THEREOF” (MEDSHINE DISCOVERY INC., priority 2021, published 2024).

For test [1], the target named is Ba/F3-FL-TYK2-E957D cells (Homo sapiens, UniProt P29597, E957D, cells depend on it). Description: Proliferation of Ba/F3-FL-TYK2-E957D cells (CellTiter-Glo). Type of test: cell-based, mouse. The conditions noted are these: 72 hours, read-out: Half maximal inhibitory concentration IC50 for cells Ba/F3-FL-TYK2-E957D. The procedure, abridged: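 Ba/F3 cells stably expressing human full-length TYK2-E957D (JH1+JH2) or TEL-TYK2 (JH1 only) were plated at 2000 cells/well with 9-point 3-fold compound dilutions (0.1% DMSO) for 72 h at 37° C. Viable cells were measured by CellTiter-Glo luminescence; IC50 came from nonlinear S-curve fits.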

For test [2], the system named is JAK1/2 signaling pathway (IL-6/pSTAT1). The test can be described thus: IL-6-stimulated pSTAT1 in human PBMC (flow cytometry). The format is cell-based. As to conditions: CD4-positive cells. As to the method: The purpose of this experiment was to detect the inhibitory effect of the compounds on cytokine-activated JAK-STAT signaling pathways in human peripheral blood mononuclear cells (PBMC).
• a) PBMCs frozen in liquid nitrogen were thawed in a 37° C. water bath, and culture medium was added. The mixture was then centrifuged at 320 g for 3 minutes. • b) Cells were resuspended in culture medium, counted, and the cell concentration was adjusted to 5×10^5 cells/mL with culture medium. Subsequently, the cell suspension was inoculated into […] 96-well round-bottom plates, with 200 μL per well. The plates were incubated at 37° C. with 5% CO2 for 90 minutes. • c) Different concentrations of the test compound (starting at 2 μM, 5-fold serial dilution, a total of 8 concentrations) were added, followed by incubation at 37° C. with 5% CO2 for 30 minutes. • d) IL-6 (final concentration at 20 ng/mL) was added to the first round-bottom plate and incubated at 37° C. with 5% CO2 for 15 minutes. • e) IFNα (final concentration at 1000 U/mL) was added to the second round-bottom plate and incubated at 37° C. with 5% CO2 for 15 minutes. • f) IL-2 (final concentration at 4 ng/mL) was added to the third round-bottom plate and incubated at 37° C. with 5% CO2 for 15 minutes. • g) GM-CSF (final concentration at […]) was added to the fourth round-bottom plate and incubated at 37° C. with 5% CO2 for 15 minutes. • h) Cells were centrifuged at 320 g for 3 minutes, and each well was washed once with 200 μL of staining solution. • i) 50 μL of staining solution containing human CD33 antibody was added to each well of the GM-CSF-stimulated culture plate, and 50 μL of staining solution containing CD4 antibody was added to the remaining three culture plates. The staining was performed at 4° C. for 30 minutes. The cells were washed twice with the staining solution. • j) 100 μL of fixation buffer was added to each well, and the cells were fixed at 4° C. for 15 minutes. The cells were washed once with the staining solution. • k) 100 μL of permeabilization buffer was added to each well, and the cells were permeabilized at 4° C. for 20 minutes. The cells were washed twice with the staining solution. • l) 50 μL of staining solution containing human pSTAT1 antibody was added to each well of the IL-6 and IFN-α-stimulated culture plates, and 50 μL of staining solution containing human pSTAT5 antibody was added to each well of the IL-2 and GM-CSF-stimulated culture plates. The staining was performed at room temperature for 15 minutes. The cells were washed twice with the staining solution. • m) The cells were resuspended in 150 μL of staining solution. • n) The fluorescence intensity of pSTAT1 (stimulated by IL-6 and IFN-α) or pSTAT5 (stimulated by IL-2) in CD4-positive cells was detected using flow cytometer. The fluorescence intensity of pSTAT5 (stimulated by GM-CSF) in CD33-positive cells was also detected.
Data analysis was performed using Flowjo software to determine the IC50 of the compounds.

Ba/F3-FL-TYK2-E957D cells, sequence (P29597 whole entry E957D): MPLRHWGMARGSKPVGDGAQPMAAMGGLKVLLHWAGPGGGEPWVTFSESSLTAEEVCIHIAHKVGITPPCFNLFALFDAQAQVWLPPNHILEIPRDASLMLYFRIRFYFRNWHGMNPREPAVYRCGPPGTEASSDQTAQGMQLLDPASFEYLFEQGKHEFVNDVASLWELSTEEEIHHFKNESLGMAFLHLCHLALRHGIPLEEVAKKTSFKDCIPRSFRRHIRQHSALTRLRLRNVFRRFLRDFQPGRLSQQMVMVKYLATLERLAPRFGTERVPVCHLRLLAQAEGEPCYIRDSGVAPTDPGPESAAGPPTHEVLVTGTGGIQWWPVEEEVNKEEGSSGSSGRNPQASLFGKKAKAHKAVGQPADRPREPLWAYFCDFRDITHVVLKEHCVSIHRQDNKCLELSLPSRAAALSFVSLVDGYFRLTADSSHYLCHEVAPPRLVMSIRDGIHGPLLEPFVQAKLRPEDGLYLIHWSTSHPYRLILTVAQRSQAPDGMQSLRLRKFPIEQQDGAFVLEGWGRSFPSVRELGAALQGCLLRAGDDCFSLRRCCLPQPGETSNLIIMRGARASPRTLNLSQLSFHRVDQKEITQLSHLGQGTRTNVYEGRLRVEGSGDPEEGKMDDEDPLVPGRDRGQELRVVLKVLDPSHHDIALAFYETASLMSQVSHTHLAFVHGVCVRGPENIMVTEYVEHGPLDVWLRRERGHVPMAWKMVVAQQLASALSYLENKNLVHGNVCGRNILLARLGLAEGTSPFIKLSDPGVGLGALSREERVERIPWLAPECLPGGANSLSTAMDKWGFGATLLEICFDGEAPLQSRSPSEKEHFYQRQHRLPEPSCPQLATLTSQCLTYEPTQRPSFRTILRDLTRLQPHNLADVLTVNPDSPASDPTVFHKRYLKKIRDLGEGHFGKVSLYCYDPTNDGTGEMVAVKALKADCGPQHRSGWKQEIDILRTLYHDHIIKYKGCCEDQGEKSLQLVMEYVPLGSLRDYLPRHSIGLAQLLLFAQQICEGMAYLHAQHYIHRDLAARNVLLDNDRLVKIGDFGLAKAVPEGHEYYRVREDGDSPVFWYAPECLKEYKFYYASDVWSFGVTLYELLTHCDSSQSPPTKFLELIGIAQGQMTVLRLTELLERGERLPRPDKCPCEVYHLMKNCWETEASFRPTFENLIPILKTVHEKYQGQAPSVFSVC

On to `CNC(=O)c1cnc(NC(=O)C2CC2)cc1Nc1cccc(-c2ncc(S(=O)(=O)C(C)C)cn2)c1OC` [WX-019], for which, in test [1], the GI50 stood at 2 nM. In test [2], the IC50 came to 99.7 nM.

For `CNC(=O)c1cnc(NC(=O)C2CC2)cc1Nc1cccc(-c2ccc(S(=O)(=O)C(C)C)cn2)c1OC.Cl` [Hydrochloride of WX-020], the GI50 in test [1] came out at 1.5 nM. Further, it took 164 nM to reach half-maximal inhibition in test [2] (IC50).

In the case of `CNC(=O)c1nnc(NC(=O)C2CC2)cc1Nc1cccc(-c2ccc(P(=O)(C3CC3)C3CC3)cn2)c1OC` [WX-021], the GI50 in test [1] turned out to be 2.5 nM. For the same molecule, in test [2], inhibition was half-maximal at 63.4 nM (IC50).

On to `CNC(=O)c1nnc(NC(=O)C2CC2)cc1Nc1cccc(-c2ccc(S(=N)(=O)C(C)C)cn2)c1OC` (single isomer, unassigned) [WX-012A], for which the GI50 in test [1] was 3.3 nM. Also, the half-maximal inhibitory concentration (IC50) in test [2] came to 52.4 nM.

For the molecule `CNC(=O)c1nnc(NC(=O)C2CC2)cc1Nc1cccc(-c2ncc(S(=N)(=O)C(C)C)cn2)c1OC` (single isomer, unassigned) [WX-011B], in test [1], the GI50 was found to be 3.3 nM. Besides, inhibition in test [2] was half-maximal at 72.5 nM (IC50).

Regarding `CNC(=O)c1nnc(NC(=O)C2CC2)cc1Nc1cccc(-c2ncc(S(=N)(=O)C(C)C)cn2)c1OC` (single isomer, unassigned) [WX-011A], the GI50 in test [1] is 5.3 nM. This molecule returned an IC50 in test [2] of 87 nM.

As for `CNC(=O)c1nnc(NC(=O)C2CC2)cc1Nc1cccc(-c2ccc(S(=N)(=O)C(C)C)cn2)c1OC` (single isomer, unassigned) [WX-012B], the GI50 in test [1] was 2.4 nM. Moreover, the IC50 in test [2] is 32.5 nM.
